In patent US20090215778A1, “Alpha-substituted Arylmethyl Piperazine Pyrazolo [1,5-alpha]Pyrimidine Amide Derivatives” (priority 2007, published 2009):

Legend:
HIV-1, NL4-3 strain = experiment: Virus infection assay (virus entry and single-cycle infection); format: cell-based; conditions: Human immunodeficiency virus 1, NL43, TZM-b1, read-out: Nl4
Summary of the method: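 TZM-b1 cells (CD4, CXCR4, CCR5; LTR-driven lacZ/luciferase reporters) were infected with HIV-1 NL4-3 (MOI 0.01) with 80 μg/mL DEAE-dextran in the presence of test compound, 4 h at 37 °C before adding complete medium. Infection was quantified one day post-infection as chemiluminescent β-galactosidase signal.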

[1] = molecular target: T1, HIV Env six-helix bundle (6HB) structure (Human immunodeficiency virus type 1 group M subtype B, UniProt P04579); experiment: Six-helix bundle (6HB) assay; format: cell-based, HIV-1 (strain RF)
T1 construct: H9 cells chronically infected with HIV-1 (H9/HIV-1RF); endogenous in cells; host or cells: H9 cells chronically infected with HIV-1 strain RF (Env is made from the virus in the infected cells, not by transfection)
Summary of the method: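 Chronically HIV-1 RF-infected H9 cells (12-40 days post-infection), 2.5×10^5 per well, were preincubated with compound for 30 min at 37 °C. sCD4 at 1 μg/mL was added for 1 h to trigger Env changes. 6HB-specific rabbit serum (1 h, 37 °C) was then added, followed by PE anti-rabbit (45 min, 4 °C), with flow cytometric fluorescence read-out.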

T1 sequence (P04579 32-519): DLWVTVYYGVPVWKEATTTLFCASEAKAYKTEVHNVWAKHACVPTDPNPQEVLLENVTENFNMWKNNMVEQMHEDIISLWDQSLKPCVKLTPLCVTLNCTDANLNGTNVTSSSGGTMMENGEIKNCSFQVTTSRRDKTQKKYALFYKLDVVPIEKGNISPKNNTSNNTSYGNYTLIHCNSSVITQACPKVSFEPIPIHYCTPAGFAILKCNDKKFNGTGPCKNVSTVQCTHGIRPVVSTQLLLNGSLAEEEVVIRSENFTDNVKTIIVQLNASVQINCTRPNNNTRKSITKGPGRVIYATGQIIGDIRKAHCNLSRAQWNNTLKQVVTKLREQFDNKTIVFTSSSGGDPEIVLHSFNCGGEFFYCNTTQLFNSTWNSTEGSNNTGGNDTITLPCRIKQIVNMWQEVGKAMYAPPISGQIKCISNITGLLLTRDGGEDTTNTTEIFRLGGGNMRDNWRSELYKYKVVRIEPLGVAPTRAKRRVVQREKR
T1 sequence (P04579 520-865): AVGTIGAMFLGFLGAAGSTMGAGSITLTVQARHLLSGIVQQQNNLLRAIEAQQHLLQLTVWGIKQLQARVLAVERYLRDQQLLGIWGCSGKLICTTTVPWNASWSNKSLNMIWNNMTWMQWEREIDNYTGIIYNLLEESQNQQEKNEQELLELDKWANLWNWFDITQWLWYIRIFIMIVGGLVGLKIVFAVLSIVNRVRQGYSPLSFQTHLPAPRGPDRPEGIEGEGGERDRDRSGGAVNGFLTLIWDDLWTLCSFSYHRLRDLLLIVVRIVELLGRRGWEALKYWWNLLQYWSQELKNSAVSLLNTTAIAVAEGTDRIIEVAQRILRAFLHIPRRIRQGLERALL

| SMILES | IC50 (HIV-1, NL4-3 strain) [µM] | IC50 [1] [µM] |
| --- | --- | --- |
| COc1ccc(-c2nc3c(C(=O)N4CCN([C@@H](CO)c5cccc(OC)c5F)C[C@H]4C)cnn3c(C(F)(F)F)c2C)cc1 [methanone, [(2R)-4-[(1R)-1-(2-fluoro-3-methoxyphenyl)-2-hydroxyethyl]-2-methyl-1-piperazinyl][5-(4-methoxyphenyl)-6-methyl-7-(trifluoromethyl)pyrazolo[1,5-α]pyrimidin-3-yl]-] | < 1 | < 1 |
| COc1ccc(-c2nc3c(C(=O)N4CCN([C@@H](CO)c5ccccc5F)C[C@H]4C)cnn3c(C(F)(F)F)c2C)cc1 [methanone, [(2R)-4-[(1R)-1-(2-fluorophenyl)-2-hydroxyethyl]-2-methyl-1-piperazinyl][5-(4-methoxyphenyl)-6-methyl-7-(trifluoromethyl)pyrazolo[1,5-α]pyrimidin-3-yl]-] | < 1 | < 1 |
| COc1ccc(-c2nc3c(C(=O)N4CCN([C@H](CO)c5ccco5)C[C@H]4C)cnn3c(C(F)(F)F)c2C)cc1 [methanone, [(2R)-4-[(1R)-1-(2-furanyl)-2-hydroxyethyl]-2-methyl-1-piperazinyl][5-(4-methoxyphenyl)-6-methyl-7-(trifluoromethyl)pyrazolo[1,5-α]pyrimidin-3-yl]-] | < 1 | < 1 |
| COc1ccc(-c2nc3c(C(=O)N4CCN([C@H](C)c5ccc(F)c(F)c5)C[C@H]4C)cnn3c(C(F)(F)F)c2C)cc1 [methanone, [(2R)-4-[(1R)-1-(3,4-difluorophenyl)ethyl]-2-methyl-1-piperazinyl][5-(4-methoxyphenyl)-6-methyl-7-(trifluoromethyl)pyrazolo[1,5-α]pyrimidin-3-yl]-] | < 1 | < 1 |
| COc1ccc(-c2nc3c(C(=O)N4CCN([C@H](C)c5cc(F)cc(F)c5)C[C@H]4C)cnn3c(C(F)(F)F)c2C)cc1 [methanone, [(2R)-4-[(1R)-1-(3,5-difluorophenyl)ethyl]-2-methyl-1-piperazinyl][5-(4-methoxyphenyl)-6-methyl-7-(trifluoromethyl)pyrazolo[1,5-α]pyrimidin-3-yl]-] | < 1 | < 1 |
| COc1ccc(-c2nc3c(C(=O)N4CCN([C@@H](CO)c5c(C)noc5C)C[C@H]4C)cnn3c(C(F)(F)F)c2C)cc1 [methanone, [(2R)-4-[(1R)-1-(3,5-dimethyl-4-isoxazolyl)-2-hydroxyethyl]-2-methyl-1-piperazinyl][5-(4-methoxyphenyl)-6-methyl-7-(trifluoromethyl)pyrazolo[1,5-α]pyrimidin-3-yl]-] | 1.1 to 10 | 1.1 to 10 |
| COc1ccc(-c2nc3c(C(=O)N4CCN([C@H](C)c5ccc(F)cc5)C[C@H]4C)cnn3c(C(F)(F)F)c2C)cc1 [methanone, [(2R)-4-[(1R)-1-(4-fluorophenyl)ethyl]-2-methyl-1-piperazinyl][5-(4-methoxyphenyl)-6-methyl-7-(trifluoromethyl)pyrazolo[1,5-α]pyrimidin-3-yl]-] | < 1 | < 1 |
| COc1ccc(-c2nc3c(C(=O)N4CCN([C@H](CO)c5ccc(Cl)s5)C[C@H]4C)cnn3c(C(F)(F)F)c2C)cc1 [methanone, [(2R)-4-[(1R)-1-(5-chloro-2-thienyl)-2-hydroxyethyl]-2-methyl-1-piperazinyl][5-(4-methoxyphenyl)-6-methyl-7-(trifluoromethyl)pyrazolo[1,5-α]pyrimidin-3-yl]-] | < 1 | < 1 |
| COc1ccc(-c2nc3c(C(=O)N4CCN([C@@H](CO)c5cccnc5OC)C[C@H]4C)cnn3c(C(F)(F)F)c2C)cc1 [methanone, [(2R)-4-[(1R)-2-hydroxy-1-(2-methoxy-3-pyridinyl)ethyl]-2-methyl-1-piperazinyl][5-(4-methoxyphenyl)-6-methyl-7-(trifluoromethyl)pyrazolo[1,5-α]pyrimidin-3-yl]-] | < 1 | < 1 |
| COc1ccc(-c2nc3c(C(=O)N4CCN([C@@H](CO)c5ccccc5OC)C[C@H]4C)cnn3c(C(F)(F)F)c2C)cc1 [methanone, [(2R)-4-[(1R)-2-hydroxy-1-(2-methoxyphenyl)ethyl]-2-methyl-1-piperazinyl][5-(4-methoxyphenyl)-6-methyl-7-(trifluoromethyl)pyrazolo[1,5-α]pyrimidin-3-yl]-] | < 1 | < 1 |
| COc1ccc(-c2nc3c(C(=O)N4CCN([C@@H](CO)c5cccc(OC)c5)C[C@H]4C)cnn3c(C(F)(F)F)c2C)cc1 [methanone, [(2R)-4-[(1R)-2-hydroxy-1-(3-methoxyphenyl)ethyl]-2-methyl-1-piperazinyl][5-(4-methoxyphenyl)-6-methyl-7-(trifluoromethyl)pyrazolo[1,5-α]pyrimidin-3-yl]-] | < 1 | < 1 |
| COc1ccc(-c2nc3c(C(=O)N4CCN([C@H](CO)c5cc(C)cs5)C[C@H]4C)cnn3c(C(F)(F)F)c2C)cc1 [methanone, [(2R)-4-[(1R)-2-hydroxy-1-(4-methyl-2-thienyl)ethyl]-2-methyl-1-piperazinyl][5-(4-methoxyphenyl)-6-methyl-7-(trifluoromethyl)pyrazolo[1,5-α]pyrimidin-3-yl]-] | < 1 | < 1 |
| COc1ccc(-c2nc3c(C(=O)N4CCN([C@@H](CO)c5cscc5C)C[C@H]4C)cnn3c(C(F)(F)F)c2C)cc1 [methanone, [(2R)-4-[(1R)-2-hydroxy-1-(4-methyl-3-thienyl)ethyl]-2-methyl-1-piperazinyl][5-(4-methoxyphenyl)-6-methyl-7-(trifluoromethyl)pyrazolo[1,5-α]pyrimidin-3-yl]-] | < 1 | < 1 |
| COc1ccc(-c2nc3c(C(=O)N4CCN([C@H](CO)c5ccc(C)s5)C[C@H]4C)cnn3c(C(F)(F)F)c2C)cc1 [methanone, [(2R)-4-[(1R)-2-hydroxy-1-(5-methyl-2-thienyl)ethyl]-2-methyl-1-piperazinyl][5-(4-methoxyphenyl)-6-methyl-7-(trifluoromethyl)pyrazolo[1,5-α]pyrimidin-3-yl]-] | < 1 | < 1 |
| COc1ccc(-c2nc3c(C(=O)N4CCN([C@@H](CO)c5ccccc5)C[C@H]4C)cnn3c(C(F)(F)F)c2C)cn1 [methanone, [(2R)-4-[(1R)-2-hydroxy-1-phenylethyl]-2-methyl-1-piperazinyl][5-(6-methoxy-3-pyridinyl)-6-methyl-7-(trifluoromethyl)pyrazolo[1,5-α]pyrimidin-3-yl]-] | < 1 | < 1 |
| COc1ccc(-c2nc3c(C(=O)N4CCN([C@@H](CO)c5ccccc5)C[C@H]4C)cnn3c(C(F)(F)F)c2OC)cc1 [methanone, [(2R)-4-[(1R)-2-hydroxy-1-phenylethyl]-2-methyl-1-piperazinyl][6-methoxy-5-(4-methoxyphenyl)-7-(trifluoromethyl)pyrazolo[1,5-α]pyrimidin-3-yl]-] | < 1 | < 1 |
| COC[C@@H](c1ccccc1)N1CCN(C(=O)c2cnn3c(C(F)(F)F)c(C)c(-c4ccc(OC)cc4)nc23)[C@H](C)C1 [methanone, [(2R)-4-[(1R)-2-methoxy-1-phenylethyl]-2-methyl-1-piperazinyl][5-(4-methoxyphenyl)-6-methyl-7-(trifluoromethyl)pyrazolo[1,5-α]pyrimidin-3-yl]-] | < 1 | < 1 |
| COc1ccc(-c2nc3c(C(=O)N4CCN([C@@H](C)c5oc(C)nc5C)C[C@H]4C)cnn3c(C(F)(F)F)c2C)cc1 [methanone, [(2R)-4-[(1S)-1-(2,4-dimethyl-5-oxazolyl)ethyl]-2-methyl-1-piperazinyl][5-(4-methoxyphenyl)-6-methyl-7-(trifluoromethyl)pyrazolo[1,5-α]pyrimidin-3-yl]-] | 1.1 to 10 | 1.1 to 10 |
| COc1ccc(-c2nc3c(C(=O)N4CCN([C@H](CO)c5cccc(OC)c5F)C[C@H]4C)cnn3c(C(F)(F)F)c2C)cc1 [methanone, [(2R)-4-[(1S)-1-(2-fluoro-3-methoxyphenyl)-2-hydroxyethyl]-2-methyl-1-piperazinyl][5-(4-methoxyphenyl)-6-methyl-7-(trifluoromethyl)pyrazolo[1,5-α]pyrimidin-3-yl]-] | < 1 | < 1 |
| COc1ccc(-c2nc3c(C(=O)N4CCN([C@H](CO)c5ccccc5F)C[C@H]4C)cnn3c(C(F)(F)F)c2C)cc1 [methanone, [(2R)-4-[(1S)-1-(2-fluorophenyl)-2-hydroxyethyl]-2-methyl-1-piperazinyl][5-(4-methoxyphenyl)-6-methyl-7-(trifluoromethyl)pyrazolo[1,5-α]pyrimidin-3-yl]-] | < 1 | < 1 |
| COc1ccc(-c2nc3c(C(=O)N4CCN([C@@H](CO)c5ccco5)C[C@H]4C)cnn3c(C(F)(F)F)c2C)cc1 [methanone, [(2R)-4-[(1S)-1-(2-furanyl)-2-hydroxyethyl]-2-methyl-1-piperazinyl][5-(4-methoxyphenyl)-6-methyl-7-(trifluoromethyl)pyrazolo[1,5-α]pyrimidin-3-yl]-] | < 1 | < 1 |
| COc1ccc(-c2nc3c(C(=O)N4CCN([C@@H](C)c5ccco5)C[C@H]4C)cnn3c(C(F)(F)F)c2C)cc1 [methanone, [(2R)-4-[(1S)-1-(2-furanyl)ethyl]-2-methyl-1-piperazinyl][5-(4-methoxyphenyl)-6-methyl-7-(trifluoromethyl)pyrazolo[1,5-α]pyrimidin-3-yl]-] | < 1 | < 1 |
